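GI50 marks 50% less growth. At the TGI there is no net growth.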
How the values were obtained:
Test in all cases: NCI-60 cell line screen, 384-well format
MDA-MB-468 breast = test system: MDA-MB-468 breast
LOX IMVI melanoma = test system: LOX IMVI melanoma
SF-539 CNS = test system: SF-539 CNS
HOP-62 NSCLC = test system: HOP-62 NSCLC
SK-OV-3 ovarian = test system: SK-OV-3 ovarian
RPMI-8226 leukemia = test system: RPMI-8226 leukemia
K-562 leukemia = test system: K-562 leukemia
SK-MEL-5 melanoma = test system: SK-MEL-5 melanoma
HT29 colon = test system: HT29 colon
NCI/ADR-RES ovarian = test system: NCI/ADR-RES ovarian
SK-MEL-2 melanoma = test system: SK-MEL-2 melanoma
HCT-15 colon = test system: HCT-15 colon
UACC-62 melanoma = test system: UACC-62 melanoma
MALME-3M melanoma = test system: MALME-3M melanoma
HCT-116 colon = test system: HCT-116 colon
SNB-19 CNS = test system: SNB-19 CNS
SK-MEL-28 melanoma = test system: SK-MEL-28 melanoma
MOLT-4 leukemia = test system: MOLT-4 leukemia
HCC-2998 colon = test system: HCC-2998 colon
NCI-H23 lung = test system: NCI-H23 lung
TK-10 renal = test system: TK-10 renal
786-0 renal = test system: 786-0 renal
OVCAR-5 ovarian = test system: OVCAR-5 ovarian
U251 glioblastoma = test system: U251 glioblastoma
A549 NSCLC = test system: A549 NSCLC
OVCAR-8 ovarian = test system: OVCAR-8 ovarian
ACHN renal = test system: ACHN renal
SF-295 CNS = test system: SF-295 CNS
RXF 393 renal = test system: RXF 393 renal
MCF7 breast = test system: MCF7 breast
NCI-H522 lung = test system: NCI-H522 lung
NCI-H322M lung = test system: NCI-H322M lung
T-47D breast = test system: T-47D breast
SW-620 colon = test system: SW-620 colon
COLO 205 colon = test system: COLO 205 colon
NCI-H460 NSCLC = test system: NCI-H460 NSCLC
MDA-MB-231 breast = test system: MDA-MB-231 breast
SR leukemia = test system: SR leukemia
HOP-92 NSCLC = test system: HOP-92 NSCLC
OVCAR-3 ovarian = test system: OVCAR-3 ovarian
SN12C renal = test system: SN12C renal
HL-60(TB) leukemia = test system: HL-60(TB) leukemia
MDA-MB-435 melanoma = test system: MDA-MB-435 melanoma
UO-31 renal = test system: UO-31 renal
NCI-H226 lung = test system: NCI-H226 lung
CCRF-CEM leukemia = test system: CCRF-CEM leukemia
DU-145 prostate = test system: DU-145 prostate
A498 renal = test system: A498 renal
KM12 colon = test system: KM12 colon
UACC-257 melanoma = test system: UACC-257 melanoma
IGROV1 ovarian = test system: IGROV1 ovarian
BT-549 breast = test system: BT-549 breast
PC-3 prostate = test system: PC-3 prostate
OVCAR-4 ovarian = test system: OVCAR-4 ovarian

Compound `Cc1sc2c(c1C)C(c1ccc(Cl)cc1)=N[C@@H](CC(=O)Nc1ccc(OCCOCCOCCOCCNc3cccc4c3C(=O)N(C3CCC(=O)NC3=O)C4=O)cc1)c1nnc(C)n1-2` (stereo partly drawn) has a GI50 (MDA-MB-468 breast) of 15.2 nM, a TGI (MDA-MB-468 breast) of 39.9 nM and a GI50 (LOX IMVI melanoma) of 68.4 nM. For the same compound, the TGI (LOX IMVI melanoma) was 203 nM, the GI50 (SF-539 CNS) was 90.4 nM and the TGI (SF-539 CNS) was 1120 nM. The GI50 (HOP-62 NSCLC) was 22.4 nM, the TGI (HOP-62 NSCLC) was 75.5 nM and the GI50 (SK-OV-3 ovarian) was 76.5 nM. For the same compound, the TGI (SK-OV-3 ovarian) was 228 nM, the GI50 (RPMI-8226 leukemia) was < 10 nM and the TGI (RPMI-8226 leukemia) was < 10 nM. It also gave a GI50 (K-562 leukemia) of 54 nM, a TGI (K-562 leukemia) of 87100 nM and a GI50 (SK-MEL-5 melanoma) of 30 nM. It also gave a TGI (SK-MEL-5 melanoma) of 118 nM, a GI50 (HT29 colon) of 106 nM and a TGI (HT29 colon) of 434 nM. For the same compound, the GI50 (NCI/ADR-RES ovarian) was 21800 nM, the TGI (NCI/ADR-RES ovarian) was > 100000 nM and the GI50 (SK-MEL-2 melanoma) was < 10 nM. The TGI (SK-MEL-2 melanoma) was 25.5 nM, the GI50 (HCT-15 colon) was 121 nM and the TGI (HCT-15 colon) was 278 nM. For the same compound, the GI50 (UACC-62 melanoma) was 34.7 nM, the TGI (UACC-62 melanoma) was 162 nM and the GI50 (MALME-3M melanoma) was 133 nM. For the same compound, the TGI (MALME-3M melanoma) was 326 nM, the GI50 (HCT-116 colon) was 56.8 nM and the TGI (HCT-116 colon) was 13600 nM. For the same compound, the GI50 (SNB-19 CNS) was 51.6 nM, the TGI (SNB-19 CNS) was > 100000 nM and the GI50 (SK-MEL-28 melanoma) was 130 nM. The TGI (SK-MEL-28 melanoma) was 799 nM, the GI50 (MOLT-4 leukemia) was < 10 nM and the TGI (MOLT-4 leukemia) was 19.8 nM. The GI50 (HCC-2998 colon) was < 10 nM, the TGI (HCC-2998 colon) was 21.7 nM and the GI50 (NCI-H23 lung) was 182 nM. For the same compound, the TGI (NCI-H23 lung) was 443 nM, the GI50 (TK-10 renal) was 190 nM and the TGI (TK-10 renal) was > 100000 nM. For the same compound, the GI50 ([…]-0 renal) was 44.4 nM, the TGI (786-0 renal) was 810 nM and the GI50 (OVCAR-5 ovarian) was 42.8 nM. It also gave a TGI (OVCAR-5 ovarian) of 1470 nM, a GI50 (U251 glioblastoma) of 186 nM and a TGI (U251 glioblastoma) of 80100 nM. The GI50 (A549 NSCLC) was 36.1 nM, the TGI (A549 NSCLC) was > 100000 nM and the GI50 (OVCAR-8 ovarian) was < 10 nM. For the same compound, the TGI (OVCAR-8 ovarian) was 18.7 nM, the GI50 (ACHN renal) was 534 nM and the TGI (ACHN renal) was > 100000 nM. The GI50 (SF-295 CNS) was 131 nM, the TGI (SF-295 CNS) was 550 nM and the GI50 (RXF 393 renal) was 34.9 nM. The TGI (RXF 393 renal) was 96.2 nM, the GI50 (MCF7 breast) was < 10 nM and the TGI (MCF7 breast) was 40.3 nM. For the same compound, the GI50 (NCI-H522 lung) was 37.1 nM, the TGI (NCI-H522 lung) was 182 nM and the GI50 (NCI-H322M lung) was 16.4 nM. For the same compound, the TGI (NCI-H322M lung) was 78.9 nM, the GI50 (T-47D breast) was < 10 nM and the TGI (T-47D breast) was < 10 nM. The GI50 (SW-620 colon) was 33.5 nM, the TGI (SW-620 colon) was > 100000 nM and the GI50 (COLO 205 colon) was 10.7 nM. The TGI (COLO 205 colon) was 44.6 nM, the GI50 (NCI-H460 NSCLC) was 380 nM and the TGI (NCI-H460 NSCLC) was > 100000 nM. For the same compound, the GI50 (MDA-MB-231 breast) was < 10 nM, the TGI (MDA-MB-231 breast) was 24 nM and the GI50 (SR leukemia) was 19.4 nM. The TGI (SR leukemia) was 69 nM, the GI50 (HOP-92 NSCLC) was 25.3 nM and the TGI (HOP-92 NSCLC) was 291 nM. The GI50 (OVCAR-3 ovarian) was 69.1 nM, the TGI (OVCAR-3 ovarian) was 431 nM and the GI50 (SN12C renal) was 37.6 nM. For the same compound, the TGI (SN12C renal) was > 100000 nM, the GI50 (HL-60(TB) leukemia) was < 10 nM and the TGI (HL-60(TB) leukemia) was < 10 nM. For the same compound, the GI50 (MDA-MB-435 melanoma) was 31.6 nM, the TGI (MDA-MB-435 melanoma) was 166 nM and the GI50 (UO-31 renal) was 305 nM. The TGI (UO-31 renal) was > 100000 nM, the GI50 (NCI-H226 lung) was 31.5 nM and the TGI (NCI-H226 lung) was 131 nM. For the same compound, the GI50 (CCRF-CEM leukemia) was < 10 nM, the TGI (CCRF-CEM leukemia) was 11.9 nM and the GI50 (DU-145 prostate) was 624 nM. The TGI (DU-145 prostate) was 16100 nM, the GI50 (A498 renal) was 166 nM and the TGI (A498 renal) was > 100000 nM. The GI50 (KM12 colon) was 37.4 nM, the TGI (KM12 colon) was > 100000 nM and the GI50 (UACC-257 melanoma) was 179 nM. The TGI (UACC-257 melanoma) was 28200 nM, the GI50 (IGROV1 ovarian) was 26.5 nM and the TGI (IGROV1 ovarian) was 123 nM. The GI50 (BT-549 breast) was < 10 nM, the TGI (BT-549 breast) was < 10 nM and the GI50 (PC-3 prostate) was 15.3 nM. The TGI (PC-3 prostate) was > 100000 nM, the GI50 (OVCAR-4 ovarian) was 15.2 nM and the TGI (OVCAR-4 ovarian) was 34.1 nM.
